Source: publication PMC7434922, “Key role of quinone in the mechanism of respiratory complex I” (Nature Communications, 2020)

Tests used:
[1] = target: T1, T. thermophilus complex I (quinone site, Q-site) (Thermus thermophilus, UniProt Q56218+Q56220+Q60019); assay: X-ray crystal structure; type: binding; conditions: crystal soaked overnight in 500 uM DQ, pH 6.0; Q-site (Y87_4, H38_4)
T1 construct: gene nqo4; native intact complex purified from T. thermophilus HB8 membranes in TDM; 16 subunits, 550 kDa; for crystals recombinant His-tagged Nqo16 (E. coli) was added; activity preparation has sub-stoichiometric Nqo16; with NADH-quinone oxidoreductase subunit 1; NADH-quinone oxidoreductase subunit 2; NADH-quinone oxidoreductase subunit 3; NADH-quinone oxidoreductase subunit 5; NADH-quinone oxidoreductase subunit 7; NADH-quinone oxidoreductase subunit 9; NADH-quinone oxidoreductase subunit 10; NADH-quinone oxidoreductase subunit 11; NADH-quinone oxidoreductase subunit 12; NADH-quinone oxidoreductase subunit 13; NADH-quinone oxidoreductase subunit 14; NADH-quinone oxidoreductase subunit 15; NADH-quinone oxidoreductase subunit 16

[2] = target: T2, T. thermophilus complex I (NADH/FMN site, subunit Nqo1) (Thermus thermophilus, UniProt Q56222); assay: X-ray crystal structure; also cryo-EM (6ZIY); type: binding; conditions: crystal soaked 4.5 min in 20 mM NADH, 20 mM dithionite, anaerobic, pH 6.0
T2 construct: same complex as P1, native from HB8 membranes; crystals with added recombinant His-tagged Nqo16; cryo-EM samples without Nqo16 (15 subunits); with NADH-quinone oxidoreductase subunit 2; NADH-quinone oxidoreductase subunit 3; NADH-quinone oxidoreductase subunit 4; NADH-quinone oxidoreductase subunit 5; NADH-quinone oxidoreductase subunit 6; NADH-quinone oxidoreductase subunit 7; NADH-quinone oxidoreductase subunit 8; NADH-quinone oxidoreductase subunit 9; NADH-quinone oxidoreductase subunit 10; NADH-quinone oxidoreductase subunit 11; NADH-quinone oxidoreductase subunit 12; NADH-quinone oxidoreductase subunit 13; NADH-quinone oxidoreductase subunit 14; NADH-quinone oxidoreductase subunit 15; NADH-quinone oxidoreductase subunit 16
T2 sequence (Q56222 1-438): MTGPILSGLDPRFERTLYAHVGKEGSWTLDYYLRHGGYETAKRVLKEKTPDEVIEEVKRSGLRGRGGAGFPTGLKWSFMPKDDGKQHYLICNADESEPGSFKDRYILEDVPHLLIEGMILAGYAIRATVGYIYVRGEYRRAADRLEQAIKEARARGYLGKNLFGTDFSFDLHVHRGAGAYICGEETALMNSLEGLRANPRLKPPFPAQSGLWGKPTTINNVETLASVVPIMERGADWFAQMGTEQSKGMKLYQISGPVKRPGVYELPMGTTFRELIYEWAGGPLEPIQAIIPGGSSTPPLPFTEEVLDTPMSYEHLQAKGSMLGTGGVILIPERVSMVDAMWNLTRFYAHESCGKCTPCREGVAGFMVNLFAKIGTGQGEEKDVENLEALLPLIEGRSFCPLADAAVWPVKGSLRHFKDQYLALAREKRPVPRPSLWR
T2 sequence (Q56221 2-181 partner): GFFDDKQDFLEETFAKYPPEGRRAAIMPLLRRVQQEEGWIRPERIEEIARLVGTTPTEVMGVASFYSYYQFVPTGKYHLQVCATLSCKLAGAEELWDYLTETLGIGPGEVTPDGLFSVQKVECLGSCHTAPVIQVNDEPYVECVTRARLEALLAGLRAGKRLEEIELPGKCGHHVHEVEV
T2 sequence (Q56223 1-783 partner): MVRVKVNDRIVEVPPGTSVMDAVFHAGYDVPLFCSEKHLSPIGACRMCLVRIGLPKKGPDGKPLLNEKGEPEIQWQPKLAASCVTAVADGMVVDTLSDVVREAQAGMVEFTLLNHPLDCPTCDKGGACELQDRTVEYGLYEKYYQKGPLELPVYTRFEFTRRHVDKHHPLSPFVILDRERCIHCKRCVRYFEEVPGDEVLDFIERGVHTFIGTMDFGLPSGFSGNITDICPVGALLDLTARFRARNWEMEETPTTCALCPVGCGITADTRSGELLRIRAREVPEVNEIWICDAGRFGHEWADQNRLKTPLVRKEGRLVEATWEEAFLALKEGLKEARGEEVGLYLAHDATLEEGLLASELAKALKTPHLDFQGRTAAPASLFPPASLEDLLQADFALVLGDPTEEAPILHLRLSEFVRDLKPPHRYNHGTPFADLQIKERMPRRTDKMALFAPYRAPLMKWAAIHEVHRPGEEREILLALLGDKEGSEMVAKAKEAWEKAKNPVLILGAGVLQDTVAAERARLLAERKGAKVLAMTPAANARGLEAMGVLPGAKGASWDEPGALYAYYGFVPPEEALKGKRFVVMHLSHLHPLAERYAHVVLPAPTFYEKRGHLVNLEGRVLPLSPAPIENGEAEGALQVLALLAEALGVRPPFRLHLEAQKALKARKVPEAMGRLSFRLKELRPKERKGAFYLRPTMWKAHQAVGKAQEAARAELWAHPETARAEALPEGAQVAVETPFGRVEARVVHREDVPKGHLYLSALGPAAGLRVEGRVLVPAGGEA

[3] = target: T2, T. thermophilus complex I (NADH/FMN site, subunit Nqo1); assay: X-ray crystal structure; type: binding; conditions: resident cofactor in Nqo1; same crystal
[4] = target: T3, Complex I antiporter-like subunit Nqo14 (Thermus thermophilus) (T. thermophilus HB8, UniProt Q56229 1-427); assay: crystal structure; intact complex I purified from T. thermophilus mixed with purified recombinant Nqo16 (1:0.2 CXI:Nqo16), sitting drop at 23 °C, 100 mM Bis-Tris pH 6.0, 19-25% PEG 4000, 100 mM KCl, 100 mM glutaric acid, detergents; native crystals and crystals soaked or co-crystallised with NADH, decylubiquinone, piericidin A, aureothin or pyridaben; conditions: both partners purified
T3 construct: Nqo14, antiporter-like core subunit of the membrane domain of respiratory complex I, Thermus thermophilus HB8; Endogenous subunit inside the crystallised intact complex; source: purified from T. thermophilus HB8 cells as part of intact complex I (anion exchange, cation exchange, gel filtration)
T3 sequence (looked up): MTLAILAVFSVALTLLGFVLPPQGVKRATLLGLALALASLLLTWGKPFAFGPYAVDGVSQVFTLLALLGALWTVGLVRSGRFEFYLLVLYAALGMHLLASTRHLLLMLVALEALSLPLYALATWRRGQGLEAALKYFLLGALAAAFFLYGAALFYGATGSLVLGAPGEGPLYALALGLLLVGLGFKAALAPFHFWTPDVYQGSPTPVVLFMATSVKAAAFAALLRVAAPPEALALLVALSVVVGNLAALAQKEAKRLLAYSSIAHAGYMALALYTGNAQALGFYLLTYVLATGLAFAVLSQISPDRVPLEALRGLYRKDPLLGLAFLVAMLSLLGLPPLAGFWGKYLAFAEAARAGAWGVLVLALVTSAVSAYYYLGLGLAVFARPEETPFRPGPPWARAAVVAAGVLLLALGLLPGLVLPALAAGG

[5] = target: T4, Complex I subunit Nqo10 (Thermus thermophilus) (T. thermophilus HB8, UniProt Q56225 1-176); assay: as above; conditions: both partners purified
T4 construct: Nqo10, core subunit of the membrane domain of respiratory complex I, Thermus thermophilus HB8; Endogenous subunit inside the crystallised intact complex; source: purified from T. thermophilus HB8 cells as part of intact complex I (anion exchange, cation exchange, gel filtration)
T4 sequence (looked up): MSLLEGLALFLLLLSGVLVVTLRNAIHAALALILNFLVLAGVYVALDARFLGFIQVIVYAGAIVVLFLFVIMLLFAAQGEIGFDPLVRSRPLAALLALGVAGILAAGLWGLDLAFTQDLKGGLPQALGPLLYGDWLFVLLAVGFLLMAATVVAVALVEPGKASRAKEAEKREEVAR

CCCCCCCCCCC1=C(C)C(=O)C(OC)=C(OC)C1=O [DQ, decylubiquinone]
X-ray crystal structure [1]: DQ interacts mainly with the residues mentioned above with its hydrocarbon chain surrounded by

NC(=O)C1=CN([C@@H]2O[C@H](COP(=O)(O)OP(=O)(O)OC[C@H]3O[C@@H](n4cnc5c(N)ncnc54)[C@H](O)[C@@H]3O)[C@@H](O)[C@H]2O)C=CC1 [NADH]
X-ray crystal structure; also cryo-EM (6ZIY) [2]: Our crystal structure of intact complex I with bound NADH confirms the binding mode

Cc1cc2nc3c(=O)[nH]c(=O)nc-3n(C[C@H](O)[C@H](O)[C@H](O)COP(=O)(O)O)c2cc1C [FMN, flavin-mononucleotide]
X-ray crystal structure [3]: The FMN is coordinated by subunit Nqo1 at the deep end

B1: Complex I subunit Nqo11 (Thermus thermophilus) (natural protein, T. thermophilus HB8, UniProt Q56226 1-95, looked up)
chain: MSYLLTSALLFALGVYGVLTRRTAILVFLSIELMLNAANLSLVGFARAYGLDGQVAALMVIAVAAAEVAVGLGLIVAIFRHRESTAVDDLSELRG
notes: Nqo11, core subunit of the membrane domain of respiratory complex I, Thermus thermophilus HB8; Endogenous subunit inside the crystallised intact complex; source: purified from T. thermophilus HB8 cells as part of intact complex I (anion exchange, cation exchange, gel filtration)
binding result [4]: binds
binding result [5]: binds
